The test system of data set [1] is PC-12. Kind of data set: Neuroprotective activity against H2O2-induced oxidative stress in rat PC-12 cells assessed as increase in cell viability at 5 uM incubated for 24 hrs. It is filed as functional, cell-based.
A further data set is filed under the species Homo sapiens. Kind of data set: Selectivity index, ratio of IC50 for inhibition of human HDAC1 to IC50 for inhibition of human HDAC6.
The target of the next data set is Histone deacetylase 1 (Homo sapiens, UniProt Q13547). Kind of data set: Inhibition of human HDAC1 using RHKKAc as substrate by fluorescence based assay.
Chain of Histone deacetylase 1 (Q13547 whole entry): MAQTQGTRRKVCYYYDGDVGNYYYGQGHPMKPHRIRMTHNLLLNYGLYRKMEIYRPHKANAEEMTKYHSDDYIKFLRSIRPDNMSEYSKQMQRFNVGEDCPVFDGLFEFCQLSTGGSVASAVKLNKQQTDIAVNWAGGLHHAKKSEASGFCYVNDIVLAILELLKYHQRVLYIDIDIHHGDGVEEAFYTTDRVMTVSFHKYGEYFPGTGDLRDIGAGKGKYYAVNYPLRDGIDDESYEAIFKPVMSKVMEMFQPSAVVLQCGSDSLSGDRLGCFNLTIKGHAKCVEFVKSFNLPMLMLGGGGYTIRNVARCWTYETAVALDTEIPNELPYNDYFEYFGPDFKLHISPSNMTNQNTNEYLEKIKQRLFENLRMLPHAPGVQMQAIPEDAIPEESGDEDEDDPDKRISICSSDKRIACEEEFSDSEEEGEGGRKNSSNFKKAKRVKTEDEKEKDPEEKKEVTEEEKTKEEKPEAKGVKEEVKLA
In data set [2] the target is T1, Protein deacetylase HDAC6 (Homo sapiens, UniProt Q9UBN7).
T1 sequence (Q9UBN7 whole entry): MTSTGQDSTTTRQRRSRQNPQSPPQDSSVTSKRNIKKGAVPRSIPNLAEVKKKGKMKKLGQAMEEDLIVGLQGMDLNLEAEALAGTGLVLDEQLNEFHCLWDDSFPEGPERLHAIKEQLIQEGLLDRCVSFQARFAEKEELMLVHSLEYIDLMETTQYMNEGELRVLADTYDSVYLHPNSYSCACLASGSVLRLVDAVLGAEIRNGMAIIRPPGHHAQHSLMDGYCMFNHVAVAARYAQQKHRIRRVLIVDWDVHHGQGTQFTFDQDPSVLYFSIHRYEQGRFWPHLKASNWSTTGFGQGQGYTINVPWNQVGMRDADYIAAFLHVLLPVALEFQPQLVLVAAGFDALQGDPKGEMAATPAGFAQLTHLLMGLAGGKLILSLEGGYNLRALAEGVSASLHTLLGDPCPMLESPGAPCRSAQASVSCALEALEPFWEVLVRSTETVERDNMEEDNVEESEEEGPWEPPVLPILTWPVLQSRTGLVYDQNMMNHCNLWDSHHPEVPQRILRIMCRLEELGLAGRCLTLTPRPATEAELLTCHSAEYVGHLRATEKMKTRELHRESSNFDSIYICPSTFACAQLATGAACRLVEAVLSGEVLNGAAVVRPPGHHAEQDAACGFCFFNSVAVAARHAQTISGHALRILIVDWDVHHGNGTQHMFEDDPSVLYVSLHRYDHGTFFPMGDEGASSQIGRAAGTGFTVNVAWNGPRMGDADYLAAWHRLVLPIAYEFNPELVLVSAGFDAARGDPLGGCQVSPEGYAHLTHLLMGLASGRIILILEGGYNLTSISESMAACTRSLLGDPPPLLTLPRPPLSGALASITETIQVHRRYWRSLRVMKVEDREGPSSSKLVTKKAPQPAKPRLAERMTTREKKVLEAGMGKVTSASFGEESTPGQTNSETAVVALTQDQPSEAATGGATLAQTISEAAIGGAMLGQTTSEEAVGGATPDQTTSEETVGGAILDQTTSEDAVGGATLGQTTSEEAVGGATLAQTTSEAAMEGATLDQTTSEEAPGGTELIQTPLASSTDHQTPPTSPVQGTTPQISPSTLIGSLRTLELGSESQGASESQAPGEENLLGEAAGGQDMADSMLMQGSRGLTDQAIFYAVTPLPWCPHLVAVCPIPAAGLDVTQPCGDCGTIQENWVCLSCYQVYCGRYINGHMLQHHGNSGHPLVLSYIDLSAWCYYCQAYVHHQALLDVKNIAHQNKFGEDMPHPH
Kind of data set: Inhibition of human HDAC6 using RHKKAc as substrate by fluorescence based assay.

Data set [3] has as its system PC-12. The data set can be described thus: Induction of neurite outgrowth in NGF-induced rat PC-12 cells assessed as increase in percentage of neurite bearing cells at 3 uM relative to control. It is filed as functional.
For data set [4], the system named is PC-12. Kind of data set: Neuroprotective activity against H2O2-induced oxidative stress in rat PC-12 cells assessed as cell viability at 5 uM incubated for 24 hrs (reference value: 62.5 %). The following applies: read-out: Activity. The class given is functional.
The test system of data set [5] is PC-12. Kind of data set: Induction of neurite outgrowth in NGF-induced rat PC-12 cells. It is filed as functional, cell-based. The following applies: dose 1-10 µM.
The nature of data set [6]: Neurotoxicity in rat PC-12 cells at 1 to 10 uM. It is filed as toxicity, cell-based. The following applies: pc-12, 10 µM, dose 1-10 µM.
The next data set concerns the target Histone deacetylase 5 (Homo sapiens, UniProt Q9UQL6). Kind of data set: Inhibition of human HDAC5 using Boc-Lys(trifluoroacetyl)-AMC as substrate by fluorescence based assay.
The test system of data set [7] is PC-12. Kind of data set: Inhibition of HDAC6 in rat PC-12 cells assessed as increase in alpha-tubulin acetylation incubated for 24 hrs by Western blot analysis. The settings on record: dose 0.1-1 µM. It is filed as cell-based. (Immunoblotting shows a protein as a band on a membrane.)
The target of another data set is T2, Histone deacetylase 8 (Homo sapiens, UniProt Q9BY41).
T2 sequence (Q9BY41 whole entry): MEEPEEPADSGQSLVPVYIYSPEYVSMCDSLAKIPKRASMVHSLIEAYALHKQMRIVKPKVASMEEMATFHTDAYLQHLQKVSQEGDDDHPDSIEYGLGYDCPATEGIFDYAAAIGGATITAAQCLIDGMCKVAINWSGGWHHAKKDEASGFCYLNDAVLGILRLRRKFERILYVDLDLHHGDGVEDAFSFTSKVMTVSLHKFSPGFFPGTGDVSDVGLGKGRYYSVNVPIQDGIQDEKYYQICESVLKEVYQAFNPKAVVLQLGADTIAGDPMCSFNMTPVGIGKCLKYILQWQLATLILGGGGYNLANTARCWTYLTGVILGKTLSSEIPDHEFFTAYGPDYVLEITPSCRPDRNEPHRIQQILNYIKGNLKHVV
Kind of data set: Inhibition of human HDAC8 using RHK(Ac)-K(Ac) as substrate by fluorescence based assay.

In data set [8] the target is Histone deacetylase 3/Nuclear receptor corepressor 2 (HDAC3/NCoR2) (Homo sapiens, UniProt O15379). The data set can be described thus: Inhibition of human HDAC3/NCOR2 using RHKKAc as substrate by fluorescence based assay. It is filed as protein-complex assay.
Chain of Histone deacetylase 3/Nuclear receptor corepressor 2 (HDAC3/NCoR2) (O15379 whole entry): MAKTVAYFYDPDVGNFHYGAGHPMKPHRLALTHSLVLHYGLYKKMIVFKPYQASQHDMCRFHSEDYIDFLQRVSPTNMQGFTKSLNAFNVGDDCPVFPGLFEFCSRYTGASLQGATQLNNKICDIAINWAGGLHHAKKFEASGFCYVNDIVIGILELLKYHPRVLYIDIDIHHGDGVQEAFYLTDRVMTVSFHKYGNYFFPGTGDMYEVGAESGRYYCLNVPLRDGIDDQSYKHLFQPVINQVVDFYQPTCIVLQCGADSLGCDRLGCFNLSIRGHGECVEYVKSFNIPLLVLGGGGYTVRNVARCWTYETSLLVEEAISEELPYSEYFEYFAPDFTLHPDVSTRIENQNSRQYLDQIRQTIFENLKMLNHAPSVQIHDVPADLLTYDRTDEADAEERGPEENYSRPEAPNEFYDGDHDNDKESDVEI
Chain of Histone deacetylase 3/Nuclear receptor corepressor 2 (HDAC3/NCoR2) (Q9Y618 whole entry, further chain): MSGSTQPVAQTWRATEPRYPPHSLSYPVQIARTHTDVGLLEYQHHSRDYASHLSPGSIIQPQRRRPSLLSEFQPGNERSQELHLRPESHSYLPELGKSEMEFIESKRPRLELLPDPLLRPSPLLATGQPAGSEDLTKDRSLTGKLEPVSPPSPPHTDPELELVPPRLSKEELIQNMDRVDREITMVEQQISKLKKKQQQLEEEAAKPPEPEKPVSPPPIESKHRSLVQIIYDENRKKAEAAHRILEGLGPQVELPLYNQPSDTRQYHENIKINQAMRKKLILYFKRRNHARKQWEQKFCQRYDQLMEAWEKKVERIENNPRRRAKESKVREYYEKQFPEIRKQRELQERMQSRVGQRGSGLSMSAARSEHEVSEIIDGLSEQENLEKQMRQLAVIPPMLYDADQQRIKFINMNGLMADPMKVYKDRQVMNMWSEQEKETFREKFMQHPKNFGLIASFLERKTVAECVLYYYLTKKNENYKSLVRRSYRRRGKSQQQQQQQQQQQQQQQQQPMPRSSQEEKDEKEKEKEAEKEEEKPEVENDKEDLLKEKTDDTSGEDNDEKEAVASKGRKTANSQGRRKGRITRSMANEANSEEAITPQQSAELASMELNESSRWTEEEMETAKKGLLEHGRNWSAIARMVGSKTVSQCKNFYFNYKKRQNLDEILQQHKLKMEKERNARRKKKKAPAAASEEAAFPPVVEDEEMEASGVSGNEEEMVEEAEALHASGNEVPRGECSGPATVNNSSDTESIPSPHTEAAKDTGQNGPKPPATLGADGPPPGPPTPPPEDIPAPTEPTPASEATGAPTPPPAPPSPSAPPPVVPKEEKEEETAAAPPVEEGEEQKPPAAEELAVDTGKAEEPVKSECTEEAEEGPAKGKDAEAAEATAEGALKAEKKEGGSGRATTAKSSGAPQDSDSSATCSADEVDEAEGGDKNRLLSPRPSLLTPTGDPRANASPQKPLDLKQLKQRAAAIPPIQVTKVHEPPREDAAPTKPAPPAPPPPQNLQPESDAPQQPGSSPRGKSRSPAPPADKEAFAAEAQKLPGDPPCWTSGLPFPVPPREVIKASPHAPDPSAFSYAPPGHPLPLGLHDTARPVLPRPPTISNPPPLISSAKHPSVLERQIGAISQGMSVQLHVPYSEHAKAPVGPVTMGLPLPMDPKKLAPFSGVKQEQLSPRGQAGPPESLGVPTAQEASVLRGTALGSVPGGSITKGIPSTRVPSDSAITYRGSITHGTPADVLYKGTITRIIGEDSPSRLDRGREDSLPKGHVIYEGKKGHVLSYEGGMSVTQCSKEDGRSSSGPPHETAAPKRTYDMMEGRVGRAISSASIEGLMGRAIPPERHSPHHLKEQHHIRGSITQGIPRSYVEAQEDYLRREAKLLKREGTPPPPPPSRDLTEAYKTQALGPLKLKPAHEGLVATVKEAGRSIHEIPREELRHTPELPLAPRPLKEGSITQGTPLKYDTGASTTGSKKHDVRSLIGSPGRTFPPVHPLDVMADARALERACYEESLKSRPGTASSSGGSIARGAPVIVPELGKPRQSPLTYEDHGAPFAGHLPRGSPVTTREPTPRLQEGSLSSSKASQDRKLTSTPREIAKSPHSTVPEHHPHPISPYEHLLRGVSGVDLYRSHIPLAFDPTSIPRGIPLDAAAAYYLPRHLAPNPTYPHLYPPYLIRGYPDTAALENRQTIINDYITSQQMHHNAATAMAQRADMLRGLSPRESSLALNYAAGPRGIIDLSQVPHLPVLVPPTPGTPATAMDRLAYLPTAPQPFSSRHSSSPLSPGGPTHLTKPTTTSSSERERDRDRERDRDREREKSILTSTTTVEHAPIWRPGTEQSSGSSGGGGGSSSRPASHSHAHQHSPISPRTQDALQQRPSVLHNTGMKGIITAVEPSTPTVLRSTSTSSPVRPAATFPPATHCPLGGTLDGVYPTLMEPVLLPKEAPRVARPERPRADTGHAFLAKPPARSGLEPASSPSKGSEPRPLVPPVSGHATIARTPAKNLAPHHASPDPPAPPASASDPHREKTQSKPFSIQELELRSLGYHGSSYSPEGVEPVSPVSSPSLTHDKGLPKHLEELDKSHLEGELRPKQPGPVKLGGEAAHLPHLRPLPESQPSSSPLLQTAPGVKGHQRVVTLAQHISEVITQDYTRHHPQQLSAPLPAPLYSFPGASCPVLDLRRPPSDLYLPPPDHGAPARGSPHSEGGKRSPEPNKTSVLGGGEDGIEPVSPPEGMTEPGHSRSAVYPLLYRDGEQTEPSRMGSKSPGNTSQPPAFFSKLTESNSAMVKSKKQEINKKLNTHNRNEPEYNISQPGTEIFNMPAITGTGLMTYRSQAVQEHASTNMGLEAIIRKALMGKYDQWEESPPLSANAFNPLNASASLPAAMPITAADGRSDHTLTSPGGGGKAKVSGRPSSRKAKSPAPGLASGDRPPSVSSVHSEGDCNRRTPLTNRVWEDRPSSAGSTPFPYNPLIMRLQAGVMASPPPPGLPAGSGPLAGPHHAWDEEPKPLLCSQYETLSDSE
For another data set, the target named is Histone deacetylase 2 (Homo sapiens, UniProt Q92769). Kind of data set: Inhibition of human HDAC2 using RHKKAc as substrate by fluorescence based assay.
Chain of Histone deacetylase 2 (Q92769 whole entry): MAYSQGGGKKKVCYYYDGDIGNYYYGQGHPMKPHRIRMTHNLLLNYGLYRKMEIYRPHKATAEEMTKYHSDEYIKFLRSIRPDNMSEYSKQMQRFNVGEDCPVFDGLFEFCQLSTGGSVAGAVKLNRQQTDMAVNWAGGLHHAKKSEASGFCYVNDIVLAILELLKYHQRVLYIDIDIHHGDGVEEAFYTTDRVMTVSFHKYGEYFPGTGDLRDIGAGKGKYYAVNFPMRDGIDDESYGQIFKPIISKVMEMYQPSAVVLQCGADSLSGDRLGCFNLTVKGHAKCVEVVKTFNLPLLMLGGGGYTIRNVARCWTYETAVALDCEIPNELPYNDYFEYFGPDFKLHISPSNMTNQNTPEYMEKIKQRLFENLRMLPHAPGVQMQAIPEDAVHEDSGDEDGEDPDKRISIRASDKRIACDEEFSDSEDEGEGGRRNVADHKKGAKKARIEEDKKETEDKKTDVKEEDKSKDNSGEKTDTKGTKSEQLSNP

The source made the active and inactive calls. The rule behind the calls is not given here. Bounds are passed on as bounds.

Chain of Histone deacetylase 5 (Q9UQL6 whole entry): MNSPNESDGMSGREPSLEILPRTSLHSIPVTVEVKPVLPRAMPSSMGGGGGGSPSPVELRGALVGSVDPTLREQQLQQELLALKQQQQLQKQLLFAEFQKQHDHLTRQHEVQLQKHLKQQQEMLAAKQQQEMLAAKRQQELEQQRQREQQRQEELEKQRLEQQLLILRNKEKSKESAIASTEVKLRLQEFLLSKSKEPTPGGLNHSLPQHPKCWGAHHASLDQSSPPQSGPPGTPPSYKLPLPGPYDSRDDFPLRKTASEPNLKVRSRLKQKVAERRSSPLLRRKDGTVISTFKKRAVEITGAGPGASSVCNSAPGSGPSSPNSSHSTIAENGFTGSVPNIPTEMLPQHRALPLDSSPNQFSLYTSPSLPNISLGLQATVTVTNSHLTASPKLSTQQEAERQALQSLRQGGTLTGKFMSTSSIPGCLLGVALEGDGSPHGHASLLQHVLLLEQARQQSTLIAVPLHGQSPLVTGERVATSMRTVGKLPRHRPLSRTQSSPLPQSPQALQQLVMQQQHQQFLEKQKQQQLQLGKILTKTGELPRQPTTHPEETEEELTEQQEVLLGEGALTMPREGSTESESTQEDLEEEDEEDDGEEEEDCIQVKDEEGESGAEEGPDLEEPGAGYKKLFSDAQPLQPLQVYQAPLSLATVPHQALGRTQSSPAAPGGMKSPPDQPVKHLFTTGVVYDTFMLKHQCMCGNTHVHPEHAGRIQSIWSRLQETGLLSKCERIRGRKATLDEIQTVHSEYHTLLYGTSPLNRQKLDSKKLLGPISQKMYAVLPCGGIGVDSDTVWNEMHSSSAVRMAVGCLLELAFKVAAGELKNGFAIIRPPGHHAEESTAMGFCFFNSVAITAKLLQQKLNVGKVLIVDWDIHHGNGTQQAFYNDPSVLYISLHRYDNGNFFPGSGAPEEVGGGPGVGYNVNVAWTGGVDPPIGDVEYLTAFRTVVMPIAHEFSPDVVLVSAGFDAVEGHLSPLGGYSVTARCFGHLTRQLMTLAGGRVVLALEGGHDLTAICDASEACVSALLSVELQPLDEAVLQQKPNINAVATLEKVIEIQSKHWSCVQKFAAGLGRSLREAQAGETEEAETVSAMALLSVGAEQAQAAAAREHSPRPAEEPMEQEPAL

In the case of `O=C(NO)c1ccc(CNC(=O)[C@@H]2Cc3c([nH]c4ccccc34)[C@@H](C3CCCC3)N2)cc1`, the result in the data set on PC-12 [1] was inactive. Moreover, the Ratio IC50 in the data set listed under Homo sapiens came to 45. Also, the IC50 against Histone deacetylase 1 came to 204 nM; in data set [2], 4.54 nM. Moreover, the Activity with PC-12 [3] is 23.3%.

Turning to `COc1ccc(CN2[C@H](C)c3[nH]c4ccccc4c3C[C@H]2C(=O)NCc2ccc(C(=O)NO)cc2)cc1`, the IC50 was above 10000 nM on Histone deacetylase 1 and 34.2 nM in [2].

On to `CN1CCc2c(c3ccccc3n2Cc2ccc(C(=O)NO)cc2)C1` [TUBASTATIN A], for which the viability at 5 µM in the data set on PC-12 [4] worked out at 77.6%. Also, in the data set with PC-12 [3], the Activity was found to be 26.7%.

Consider `O=C(NO)c1ccc(CNC(=O)[C@@H]2Cc3c([nH]c4ccccc34)[C@@H](c3ccc(Cl)cc3)N2)cc1`, for which the outcome in the data set on PC-12 [1] was inactive. For the same compound, the Ratio IC50 in the data set listed under Homo sapiens came out at 137. Further, the IC50 amounted to 770 nM against Histone deacetylase 1 and 5.61 nM in [2]. The Activity in the data set with PC-12 [3] came to 23.3%.

Consider `O=C(NO)c1ccc(CNC(=O)[C@@H]2Cc3c([nH]c4ccccc34)[C@@H](C3CC3)N2Cc2ccc(Cl)cc2)cc1`, for which the Activity entry is “Dose-Dependent Effect” in the data set on PC-12 [5] and 23.3% with PC-12 [3]. Besides, the viability at 5 µM with PC-12 [4] is 92.5%. The Ratio IC50 in the data set filed under Homo sapiens is 155. In addition, the IC50 against Histone deacetylase 1 turned out to be 1740 nM; in data set [2], 11.2 nM.

On to `O=C(NO)c1ccc(CNC(=O)[C@@H]2Cc3c([nH]c4ccccc34)[C@@H](c3ccc4c(c3)OCO4)N2)cc1`, for which the outcome with PC-12 [1] was inactive. For the same compound, the Ratio IC50 in the data set listed under Homo sapiens came to 108. Besides, the IC50 on Histone deacetylase 1 was 216 nM; in data set [2] it was 2 nM. The Activity entry in data set [6] was “Toxic”; with PC-12 [3], 46.4%.

Turning to `COc1ccc([C@H]2N[C@H](C(=O)NCc3ccc(C(=O)NO)cc3)Cc3c2[nH]c2ccccc32)cc1OC`, the result in the data set with PC-12 [1] was inactive. Besides, the IC50 at Histone deacetylase 1 was found to be 390 nM. In the data set with PC-12 [3], the Activity came out at 23.3%.

As for `O=C(NO)c1ccc(CNC(=O)[C@@H]2Cc3c([nH]c4ccccc34)[C@@H](C3CC3)N2Cc2ccccc2)cc1`, the Activity entry in the data set on PC-12 [5] is “Dose-Dependent Effect”; with PC-12 [3] it was 23.3%. Moreover, the viability at 5 µM in the data set on PC-12 [4] is above 85%. In addition, in the data set filed under Homo sapiens, the Ratio IC50 is 134. Moreover, the IC50 against Histone deacetylase 1 amounted to 1700 nM; in data set [2], 12.7 nM.

Turning to `O=C(NO)c1ccc(CNC(=O)[C@@H]2Cc3c([nH]c4ccccc34)[C@@H](C3CC3)N2)cc1`, the result with PC-12 [1] was inactive. For the same compound, in the data set filed under Homo sapiens, the Ratio IC50 is 36. The results for the IC50 (against Histone deacetylase 1; in data set [2]) were 118 nM and 3.25 nM, respectively. Also, in the data set on PC-12 [3], the Activity was 23.3%.

Regarding `O=C(NO)c1ccc(CNC(=O)[C@@H]2Cc3c([nH]c4ccccc34)[C@@H](c3ccccc3)N2)cc1`, the outcome in the data set with PC-12 [1] was inactive. In addition, in the data set listed under Homo sapiens, the Ratio IC50 was 140. The values for the IC50 (against Histone deacetylase 1; in data set [2]) were 742 nM and 5.3 nM, respectively. Besides, the Activity in the data set on PC-12 [3] is 23.3%.

In the case of `O=C(NO)c1ccc(CNC(=O)[C@@H]2Cc3c([nH]c4ccccc34)[C@@H](c3ccc(Cl)cc3)N2CC2CC2)cc1`, the IC50 is above 10000 nM at Histone deacetylase 5; above 10000 nM against Histone deacetylase 8; 1660 nM in data set [8]; 1280 nM at Histone deacetylase 1; 1440 nM on Histone deacetylase 2. Further, the inhibition entry in the data set with PC-12 [7] was “Dose-Dependent Effect”. The Activity entry in the data set with PC-12 [5] was “Dose-Dependent Effect”; in the data set on PC-12 [3], 47.1%. Also, the viability at 5 µM in the data set on PC-12 [4] was 99.6%.

Consider `COc1ccc(CN2[C@H](C(=O)NCc3ccc(C(=O)NO)cc3)Cc3c([nH]c4ccccc34)[C@H]2C2CC2)cc1`, for which the results for the Activity result in the data set with PC-12 [5] and in the data set on PC-12 [3] were “Dose-Dependent Effect” and 23.3%, respectively. Besides, the viability at 5 µM with PC-12 [4] is above 85%.

Broadly, the IC50 is the concentration that inhibits the measured activity by half. Lower therefore signals inhibition by little substance.

These data come from ChEMBL document CHEMBL5579806, “Re-exploration of tetrahydro-β-carboline scaffold: Discovery of selective histone deacetylase 6 inhibitors with neurite outgrowth-promoting and neuroprotective activities” (Bioorg Med Chem Lett, 2024).
